# Source: US20100125103A1 (TG BIOTECH CO. LTD., priority 2008, published 2010)
# Entries after “also recorded” stand apart in the source; their conditions may differ.
# How the values were obtained:
# [1] = Solubility (Table 1); type: physicochemical; conditions: for Solubility Insoluble: solvents in which the compound is insoluble; for Solubility Soluble: solvents in which the compound is soluble
# Method: Each of the compounds prepared by Examples 1 to 7 were subjected to UV absorbance analysis, IR(infrared) absorbance analysis and high resolution mass spectrometry analysis so as to determine the molecular weight and formula of the purified compound. Specifically, UV absorbance analysis was carried out by UV-265 spectrophotometer (Shimadzu), IR absorbance analysis was carried out by FTS-80 spectrophotometer (Bio-Rad Digilab Division), and the molecular weight and formula were determined through High resolution MS analysis by using VG70-SEQ mass spectrometry. Also, a nuclear magnetic resonance device (Varian 300, 500 NMR) was used to obtain ^1H, ^13C-NMR spectrum, and the spectrum was synthetically analyzed to determine the structure.
# [2] = tested on: diabetic db/db mice; test: Blood glucose level in db/db mice; type: in vivo; conditions: for reduced extent of blood glucose level compared to control / blood glucose level: 10 mg/kg oral
# Method: In order to measure the blood glucose level in db/db mice through treatment of the compounds obtained from Examples, the effects of the compounds were measured by using a method described in the reference (Halseth A E et al, Biochem Biophys Res Commun. 294, […], 2002).
# Meanwhile, to a control group, the same volume of saline solution orally administered for 4 weeks. Then, the change in blood glucose level of the mice was recorded.
Molecule,Solubility Insoluble [1],Solubility Soluble [1],further results
"C/C=C/c1ccc(Oc2cc(/C=C/C)cc(O)c2O)cc1 [Example 5, 3-(4-((E)-prop-1-enyl)phenoxy)-5-((E)-prop-1-enyl)benzene-1,2-diol]",Water,"Alcohol, and DMSO",
"C/C=C/c1ccc(Oc2cc(/C=C/C)cc(OC(C)=O)c2OC(C)=O)cc1 [Example 7, 1-(4-((E)-prop-1-enyl)phenoxy)-2,3-diacetyloxy-5-((E)-prop-1-enyl)benzene]",Water,"Alcohol, and DMSO",
"CCCc1ccc(Oc2cc(CCC)cc(O)c2O)cc1 [Example 2, 3-(4-propylphenoxy)-5-propylbenzene-1,2-diol]",Water,"Alcohol, and DMSO",
"CCCc1ccc(Oc2cc(CCC)cc(OC(C)=O)c2OC(C)=O)cc1 [Example 4, 1-(4-propylphenoxy)-2,3-diacetyloxy-5-propylbenzene]",Water,"Alcohol, and DMSO",
obovatol [Example 1],,,"change in blood glucose level compared to the control group ([2]; 5 mg/kg oral, 4 weeks): did not show a significant change; reduced extent of blood glucose level compared to control ([2]; after 1 week): 39.6%; blood glucose level ([2]; after 1 week (control 390.25±44.1)): 235.75±20.9; reduced extent of blood glucose level compared to control ([2]; after 2 weeks): 29.2%; blood glucose level ([2]; after 2 weeks (control 419.75±28.8)): 297.25±29; reduced extent of blood glucose level compared to control ([2]; after 3 weeks): 52.7%; blood glucose level ([2]; after 3 weeks (control 495±86.2)): 234±61.5; reduced extent of blood glucose level compared to control ([2]; after 4 weeks): 55.2%; blood glucose level ([2]; after 4 weeks (control 522±78)): 288±27.6"
"CCCc1ccc(Oc2cc(CCC)cc(O)c2OC)cc1 [Example 3, 3-(4-propylphenoxy)-2-methoxy-5-propylphenol]","Hexane,; also recorded: Water","Alcohol, and DMSO",
